Measured values taken from publication PMC7726675 (Data in Brief, 2020).

Test system: AAR^CAp
Conditions: read-out: KM^AcAcCoA; NADH fixed at 300 µM; 50 mM Tris pH 8, 5 mM MgCl2, 5 mM NaCl; 30 °C

Compound `CC(=O)CC(=O)SCCNC(=O)CCNC(=O)[C@H](O)C(C)(C)COP(=O)(O)OP(=O)(O)OC[C@H]1O[C@@H](n2cnc3c(N)ncnc32)[C@H](O)[C@@H]1OP(=O)(O)O` [acetoacetyl-CoA] has a Km of 56.7 µM.
